From PubChem BioAssay (NCI)
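How tested: cells in 96-well plates exposed to compound for 48 hours at five concentrations. The concentration for full growth arrest is given as TGI.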

Columns and labels:
Assay in all cases: inhibition of tumour cell growth, NCI panel, 48 h
HL-60(TB) leukemia = tested on: HL-60(TB) leukemia
COLO 205 colon = tested on: COLO 205 colon
SNB-75 CNS = tested on: SNB-75 CNS
UACC-62 melanoma = tested on: UACC-62 melanoma
SR leukemia = tested on: SR leukemia
LOX IMVI melanoma = tested on: LOX IMVI melanoma
RXF 393 renal = tested on: RXF 393 renal
U251 CNS = tested on: U251 CNS
MDA-MB-435 = tested on: MDA-MB-435
SNB-19 CNS = tested on: SNB-19 CNS

Compound | TGI (HL-60(TB) leukemia) [µM] | TGI (COLO 205 colon) [µM] | TGI (SNB-75 CNS) [µM] | TGI (UACC-62 melanoma) [µM] | TGI (SR leukemia) [µM] | TGI (LOX IMVI melanoma) [µM] | TGI (RXF 393 renal) [µM] | TGI (U251 CNS) [µM] | TGI (MDA-MB-435) [µM] | TGI (SNB-19 CNS) [µM]
COC(=O)Cc1cc(O)c2c(c1O)C(=O)c1ccccc1C2=O | > 100 | > 100 | 49 | > 100 | > 100 | > 100 | 63.7 | > 93.2 | > 100 | > 85.5
CC(=O)Nc1ccc2c(C)c3c(nc2n1)[nH]c1ccccc13 |  | 32 | 69.2 | 60.9 | 64.9 | 37.9 | > 100 | > 100 | 87.3 | 
CN(C)CCNc1ccc2c(=O)n(CCN(C)C)c(=O)n3c4ccc(O)cc4c(=O)c1c23 |  | 0.099 | 0.305 | 0.147 | < 0.01 | 0.217 | 0.224 | 0.439 | 0.259 | 0.729
S=C1c2ccc(Cl)cc2-n2cnnc2C2CSCN12 (stereo unspecified) |  | > 100 | > 100 | > 100 | > 100 | > 100 | > 100 | > 100 | > 100 | > 100
COc1cccc(N2C(=O)CSC2c2cccc(Oc3ccccc3)c2)c1 (stereo unspecified) | 66.5 | 10.2 | 39.5 | 11.7 | 17.6 | 27.2 | 39.1 | 19.3 | > 100 | > 100
Cc1ccc(C(=N)c2ccccc2Cc2cccc3ccccc23)c2ccccc12 | > 100 | > 100 | > 100 | > 100 | > 100 | > 100 | > 100 | > 100 | > 100 | > 100
C1=C(c2ccccc2)SC(N2CCCCC2)S1 (stereo unspecified) | > 100 | > 100 | > 100 | > 100 | > 100 | > 100 | > 100 | > 100 |  | > 100
COC1CC(N)(c2ccccc2)C(O)C(C)O1 (stereo unspecified) | > 100 | > 100 | > 100 | > 100 | > 100 | > 100 | > 100 | > 100 | > 100 | > 100
COC(=O)C1(NC(=O)C(CC(=O)OCc2ccccc2)NC(=O)OCc2ccccc2)CCCCCC1 (stereo unspecified) | 51 | 47.3 | > 100 | 34.3 | 87.4 | 66 | > 100 | > 100 | 74.4 | > 100
C/C(CC(O)(C(F)(F)F)C(F)(F)F)=N\NC(N)=O | > 10 | > 10 | > 10 | > 10 | > 10 | > 10 | > 10 | > 10 | > 10 | > 10
O=C(Nc1ccccc1)N(C1=NCC(CI)S1)c1ccc(F)c(F)c1 (stereo unspecified) | 79.4 | > 100 | 55.6 |  | > 100 | 34 |  | > 100 |  | > 100
COc1cc2c(c3c1c(=O)c1ccccc1n3C)C=CC1(CCCC1)O2 | 26.1 | 27.6 | 24.8 | 29.1 | 52.8 | 27.3 | 22.8 | 31.9 | 35 | 35.2
Cc1ccc(C)c(NC(=O)C(=O)C(C(=O)c2ccc3ccccc3c2)C2OC(=O)c3ccccc32)c1 (stereo unspecified) | 52 | 32.1 | 58.8 | 27.8 | > 100 | 35.1 | 9.74 | 16.2 |  | 31.2
O=C1C=CC(=O)c2c1ccc1c3ccccc3n(Cc3ccc([N+](=O)[O-])cc3)c21 | 33.2 | > 100 | > 100 | > 100 | 37.3 |  | > 100 | > 100 | > 100 | > 100
Cc1ccc(S(=O)(=O)NC(=O)Nc2nnc(S(N)(=O)=O)s2)cc1 | > 100 | > 100 | > 100 | > 100 | > 100 | > 100 | > 100 | > 100 | > 100 | > 100
CCOC(=O)c1c(C)n(Cc2ccc(Cl)cc2Cl)c2c1cc(O)c1[nH]c3c(c12)CCCC3 | 2.79 | > 100 | 48.6 | 49.2 | 0.379 | > 100 | 41.2 | > 100 | 55.5 | 58
N#CCCN(CCC#N)c1ccc(/C=C2\N=C(c3ccccc3)N(c3ccc(F)cc3)C2=O)cc1 |  | > 100 | > 100 | > 100 | > 100 | > 100 | > 100 | > 100 | > 100 | > 100
O=c1[nH]/c(=C/c2ccc(OCc3ccccc3)cn2)c(=O)[nH]/c1=C/c1ccccc1 |  | > 25.4 | 0.0706 | > 100 | 14.4 | > 100 | > 100 | > 91.6 | 0.567 | > 100
C=CCC1(C#N)C(=S)NC2=C(C(=O)CC(C)(C)C2)C1c1ccccc1 (stereo unspecified) | > 100 | > 100 | 74.8 |  | > 100 | > 100 | > 100 | > 100 | > 100 | > 100
CCc1n[nH]c(=O)n1CCCCCCCCCCCCn1c(CC)n[nH]c1=O |  | 75.5 | 80.6 | 61.3 | > 100 | 99 | > 100 | 86.4 | 76.3 | > 100
CC(=O)NC1C(OCc2ccccc2)OC(CO)C(O)C1OCC(=O)N1CCCC1C(=O)N[C@@H](CCC(=O)NCCCCNc1c2ccccc2nc2cccc([N+](=O)[O-])c12)C(N)=O (stereo partly specified) |  | 46.4 | 65.8 |  | > 100 |  |  | 48.9 | 54.5 | 62.4
C[C@H](c1ccccc1)N1C(=O)[C@@H](O)[C@H]1[C@H](CO)OCc1ccccc1 |  | > 100 | > 100 | > 100 | > 100 | > 100 |  | > 100 | > 100 | > 100
Cc1ccc2nc(SCC(=O)N=Nc3c(O)[nH]c4ccccc34)n(-c3ccccc3)c(=O)c2c1 | 62.2 | 33 |  | 30.6 | 36.7 | 29.8 | 27 | 24.8 | 33.7 | 40.6

Compound | TGI (HL-60(TB) leukemia) [µM] | TGI (COLO 205 colon) [µM] | TGI (SNB-75 CNS) [µM] | TGI (UACC-62 melanoma) [µM] | TGI (SR leukemia) [µM] | TGI (LOX IMVI melanoma) [µM] | TGI (RXF 393 renal) [µM] | TGI (U251 CNS) [µM] | TGI (MDA-MB-435) [µM] | TGI (SNB-19 CNS) [µM]
CC(C)(C)c1ccccc1N1C(=O)c2ccc3c4c(ccc(c24)C1=O)N(c1ccccc1C(C)(C)C)C3=O |  | > 100 |  | > 100 | > 100 |  | > 100 | > 100 | > 100 | > 100
COc1ccc2c(c1)C(=O)CC1c3cnccc3C(=O)N21 (stereo unspecified) |  | > 100 | > 100 | > 100 | > 100 | > 100 | > 100 | > 100 | > 31.6 | > 100
CC(C)=CCN1c2ccccc2NC(=O)CC1C (stereo unspecified) | > 100 | > 100 |  |  | > 100 | > 100 | > 100 | > 100 | > 100 | > 100
Cc1ccc2c(c1)-c1nc(N)c(C#N)c(-c3ccc(Cl)cc3)c1CCS2(=O)=O | 47 | 65.6 | > 100 | > 100 | 65.6 | > 100 |  | > 100 | > 100 | > 100
CCNCCNC(=O)c1ccc(I)cc1 | > 100 |  | > 100 | > 100 | > 100 | > 100 | > 100 | > 100 |  | > 100
CC12CCC(CC(=O)/C1=C(/Br)I)C2(C)C (stereo unspecified) | 12 | 31.9 | 31 | 30.4 | 39 |  | 20.6 |  | 28.6 | 30.7
O=c1[nH]cc(NCCCl)c(=O)[nH]1 |  | > 100 | > 100 | > 100 | > 100 | > 100 | > 100 | > 100 | > 100 | > 100
CC(=O)O[C@H]1CC(C)(C)C(=C=C/C(C)=C/C=C/C=C/C=C(C)/C=C2C=C(/C=C/[C@@]34O[C@]3(C)C[C@@H](O)CC4(C)C)C(=O)O/2)[C@](C)(O)C1 | 4.9 | > 100 | 28 | 24 | 74.8 |  | 20.5 | > 100 | > 100 | > 100
Cc1cc(C)nc(NS(=O)(=O)c2ccc(NC(=O)c3c4ccccc4nc4ccccc34)cc2)n1 |  | > 100 | > 100 | > 100 | > 100 | > 100 |  | > 100 | > 100 | > 100
O=c1[nH]c(Nc2ccccc2)nc2c1ncn2CC(O)CSCCO (stereo unspecified) | > 100 | > 100 | > 100 | > 100 | > 100 | > 100 |  | > 100 | > 100 | > 100
C=CCSC1=N/C(=C\c2ccc(Cl)cc2)C(=O)N1CC=C | 24.5 | > 100 |  | > 100 | 48.4 | > 100 | 45.3 | 64.6 | > 100 | > 100
COc1cc(C2c3c(ccc4ccccc34)C(=O)C3CCC(=O)N32)cc(OC)c1OC (stereo unspecified) | > 50 | > 50 | > 50 | > 50 | > 50 |  | > 50 | > 50 | > 50 | > 50
CC(N=NNc1ccc(-c2nc3ccccc3[nH]2)cc1)C(=O)O (stereo unspecified) | > 100 | > 100 | > 100 |  | > 100 | > 100 | > 100 | 60.8 | > 100 | > 100
CN1CCN(C(=S)N(C)C(=O)c2ccco2)CC1 |  | > 100 |  | > 100 | > 100 | > 100 | > 100 | > 100 | > 100 | > 100
COc1cc2c(c(O)c1O)C(=O)C1CCC(=O)N1C2c1cccc2ccccc12 (stereo unspecified) | > 50 | > 50 | > 50 | > 50 | > 50 |  | > 50 | > 50 | > 50 | > 50
c1ccc(-c2csc3c4ccccc4c4ccccc4[n+]23)cc1 | > 35 | 7.73 | 6.98 | 5.27 | > 100 | 16.9 | 26.7 | 13.8 |  | 7.52
N=C1C(=N)c2ccccc2-c2ccccc21.[Cl-].[Ru+2].c1ccc(-c2ccccn2)nc1.c1ccc(-c2ccccn2)nc1 | > 100 |  | > 100 | > 100 | > 100 | > 100 | > 100 | > 100 |  | 
COC(=O)C1=C(O)C(C(=O)OC)C2CC(=O)CC1C2(C)C (stereo unspecified) | > 100 | > 100 | > 100 | > 100 | > 100 |  | > 100 | > 100 | > 100 | > 100
c1ccc(/C(=N/Nc2nc3ccccc3s2)C2CCCCC2)nc1 |  | 13.1 |  | 31.3 | 16.8 | 54.3 | 24.8 | 35.9 | 39.3 | 30.6
CC1CC[C@@]2(OC1)OC1C[C@H]3[C@@H]4CC=C5CC(OC6OC(CO)C(OC7OC(CO)C(O)C(OC8OCC(O)C(O)C8O)C7OC7OC(CO)C(OC8OC(C)C(OC9OC(C)C(O)C(O)C9O)C(O)C8O)C(O)C7O)C(O)C6O)CCC5(C)[C@H]4CCC3(C)C1[C@@H]2C (stereo partly specified) | 17.2 | 15.6 |  | 17.7 | 50 | 17.3 | 14.2 | 16.3 | 18.4 | 11.6
O=c1[nH]c2nc3ccccc3c(=O)n2/c1=C/c1ccc(Cl)cc1 | > 100 | > 100 |  | > 100 | > 100 | > 100 | > 100 | > 100 | 58.5 | 79.8
c1ncn(C23C4C5C6C4C2C6C53)n1 (stereo unspecified) | > 100 | > 100 | > 100 |  | > 100 | > 100 |  | > 100 | > 100 | > 100
